{
  "source": "PubChem BioAssay AID1963980",
  "about": "(Molecular Pharmacology Branch, DTP, NCI, 2024);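 also: spheroids exposed to agents for seven days before readout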",
  "test_system": "475296-252-R-J1-PDC spheroid viability",
  "assay": "Anticancer human tumor 475296-252-R-J1-PDC patient-derived rectal carcinoma cell line growth inhibition [PI3K]",
  "conditions": "spheroids with HUVEC and MSC; for IC50: curve of first compound; for viability, T/C: stronger effect = lower value",
  "in_short": "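Combination activity was assessed by viability in multicellular tumor spheroids carrying HUVEC and MSC components. Agents were tested with PI3K inhibitors from a Cmax-based top dose (or 10 microM) downward in half-log increments.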",
  "data": [
    {"smiles": "Cn1ncnc1[C@H]1c2n[nH]c(=O)c3cc(F)cc(c23)N[C@@H]1c1ccc(F)cc1", "note": "+ CC(Nc1ccc2c(c1)OCCn1cc(N3C(=O)OCC3C(F)F)nc1-2)C(N)=O", "values": [
      {"measurement": "IC50", "setting": "second compound 0.00316 µM", "value": "> 100", "unit": "nM"},
      {"measurement": "IC50", "setting": "second compound 0.01 µM", "value": "> 100", "unit": "nM"},
      {"measurement": "IC50", "setting": "second compound 0.0316 µM", "value": "> 100", "unit": "nM"},
      {"measurement": "IC50", "setting": "second compound 0.1 µM", "value": "> 100", "unit": "nM"},
      {"measurement": "IC50", "setting": "second compound 0.316 µM", "value": "> 100", "unit": "nM"},
      {"measurement": "IC50", "setting": "second compound 1 µM", "value": "> 100", "unit": "nM"},
      {"measurement": "viability, T/C", "setting": "second compound 0.00316 µM, first compound 0.000316 µM", "value": 88.1, "unit": "%"},
      {"measurement": "viability, T/C", "setting": "second compound 0.00316 µM, first compound 0.001 µM", "value": 84.3, "unit": "%"},
      {"measurement": "viability, T/C", "setting": "second compound 0.00316 µM, first compound 0.00316 µM", "value": 94.8, "unit": "%"},
      {"measurement": "viability, T/C", "setting": "second compound 0.00316 µM, first compound 0.01 µM", "value": 93.2, "unit": "%"},
      {"measurement": "viability, T/C", "setting": "second compound 0.00316 µM, first compound 0.0316 µM", "value": 97.2, "unit": "%"},
      {"measurement": "viability, T/C", "setting": "second compound 0.00316 µM, first compound 0.1 µM", "value": 90.1, "unit": "%"},
      {"measurement": "viability, T/C", "setting": "second compound 0.01 µM, first compound 0.000316 µM", "value": 98.4, "unit": "%"},
      {"measurement": "viability, T/C", "setting": "second compound 0.01 µM, first compound 0.001 µM", "value": 82.9, "unit": "%"},
      {"measurement": "viability, T/C", "setting": "second compound 0.01 µM, first compound 0.00316 µM", "value": 89.2, "unit": "%"},
      {"measurement": "viability, T/C", "setting": "second compound 0.01 µM, first compound 0.01 µM", "value": 95.1, "unit": "%"},
      {"measurement": "viability, T/C", "setting": "second compound 0.01 µM, first compound 0.0316 µM", "value": 92.8, "unit": "%"},
      {"measurement": "viability, T/C", "setting": "second compound 0.01 µM, first compound 0.1 µM", "value": 92, "unit": "%"},
      {"measurement": "viability, T/C", "setting": "second compound 0.0316 µM, first compound 0.000316 µM", "value": 86.1, "unit": "%"},
      {"measurement": "viability, T/C", "setting": "second compound 0.0316 µM, first compound 0.001 µM", "value": 104, "unit": "%"},
      {"measurement": "viability, T/C", "setting": "second compound 0.0316 µM, first compound 0.00316 µM", "value": 88.8, "unit": "%"},
      {"measurement": "viability, T/C", "setting": "second compound 0.0316 µM, first compound 0.01 µM", "value": 87.4, "unit": "%"},
      {"measurement": "viability, T/C", "setting": "second compound 0.0316 µM, first compound 0.0316 µM", "value": 88, "unit": "%"},
      {"measurement": "viability, T/C", "setting": "second compound 0.0316 µM, first compound 0.1 µM", "value": 96.6, "unit": "%"},
      {"measurement": "viability, T/C", "setting": "second compound 0.1 µM, first compound 0.000316 µM", "value": 92.4, "unit": "%"},
      {"measurement": "viability, T/C", "setting": "second compound 0.1 µM, first compound 0.001 µM", "value": 101, "unit": "%"},
      {"measurement": "viability, T/C", "setting": "second compound 0.1 µM, first compound 0.00316 µM", "value": 93.6, "unit": "%"},
      {"measurement": "viability, T/C", "setting": "second compound 0.1 µM, first compound 0.01 µM", "value": 92.6, "unit": "%"},
      {"measurement": "viability, T/C", "setting": "second compound 0.1 µM, first compound 0.0316 µM", "value": 89.7, "unit": "%"},
      {"measurement": "viability, T/C", "setting": "second compound 0.1 µM, first compound 0.1 µM", "value": 97.9, "unit": "%"},
      {"measurement": "viability, T/C", "setting": "second compound 0.316 µM, first compound 0.000316 µM", "value": 81.8, "unit": "%"},
      {"measurement": "viability, T/C", "setting": "second compound 0.316 µM, first compound 0.001 µM", "value": 83.4, "unit": "%"},
      {"measurement": "viability, T/C", "setting": "second compound 0.316 µM, first compound 0.00316 µM", "value": 86.1, "unit": "%"},
      {"measurement": "viability, T/C", "setting": "second compound 0.316 µM, first compound 0.01 µM", "value": 84.6, "unit": "%"},
      {"measurement": "viability, T/C", "setting": "second compound 0.316 µM, first compound 0.0316 µM", "value": 89.8, "unit": "%"},
      {"measurement": "viability, T/C", "setting": "second compound 0.316 µM, first compound 0.1 µM", "value": 81.6, "unit": "%"},
      {"measurement": "viability, T/C", "setting": "second compound 1 µM, first compound 0.000316 µM", "value": 84.5, "unit": "%"},
      {"measurement": "viability, T/C", "setting": "second compound 1 µM, first compound 0.001 µM", "value": 71.6, "unit": "%"},
      {"measurement": "viability, T/C", "setting": "second compound 1 µM, first compound 0.00316 µM", "value": 87, "unit": "%"},
      {"measurement": "viability, T/C", "setting": "second compound 1 µM, first compound 0.01 µM", "value": 89.1, "unit": "%"},
      {"measurement": "viability, T/C", "setting": "second compound 1 µM, first compound 0.0316 µM", "value": 85, "unit": "%"},
      {"measurement": "viability, T/C", "setting": "second compound 1 µM, first compound 0.1 µM", "value": 79.6, "unit": "%"}
    ]}
  ]
}
